Columns and labels:
human TGR5 (h-TGR5) = molecular target: T1, human TGR5 (h-TGR5) (Homo sapiens, UniProt Q8TDU6); assay: TGR5/CRE-Luciferiase Assay (HEK 293 hTGR5/CRE-Luc cells); format: cell-based; conditions: h-TGR5 CRE-Luc EC50, Table 1; read-out: CRE-Luc (EC50)
T1 construct: expressed in transfected cells
T1 sequence (Q8TDU6 1-330): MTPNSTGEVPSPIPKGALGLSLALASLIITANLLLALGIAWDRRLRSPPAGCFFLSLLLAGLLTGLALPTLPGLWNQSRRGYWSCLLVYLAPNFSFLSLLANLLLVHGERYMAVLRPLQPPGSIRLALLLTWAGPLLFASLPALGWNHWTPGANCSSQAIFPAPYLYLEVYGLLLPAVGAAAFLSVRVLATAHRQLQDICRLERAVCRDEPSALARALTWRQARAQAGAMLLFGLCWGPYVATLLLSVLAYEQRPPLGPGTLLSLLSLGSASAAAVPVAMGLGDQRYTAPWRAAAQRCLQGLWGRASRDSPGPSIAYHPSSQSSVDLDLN
Summary of the method: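 HEK293 cells stably carrying hTGR5 and a CRE-luciferase reporter were exposed to serially diluted compounds (diluted in DMEM with 5% DMSO) for 6 h. Cells were then lysed in luciferase buffer, luminescence was read, and EC50 values were derived from dose-response curves.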

h-TGR5 = molecular target: T2, h-TGR5 (Homo sapiens, UniProt Q8TDU6); assay: TGR5 cAMP Assay using Cisbio cAMP Dynamic2 htrf kit (hTGR5CRE-luc HEK 293 cells); format: cell-based; conditions: h-TGR5 cAMP EC50, Table 1; read-out: cAMP (EC50)
T2 construct: expressed in transfected cells
T2 sequence (Q8TDU6 1-330): T1 sequence (Q8TDU6 1-330)
Summary of the method: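 […], 4000 hTGR5CRE-luc HEK 293 cells per well, with 0.5 mM IBMX and d2-cAMP, were incubated 30 min at room temperature with compounds in 8-point half-log series, in quadruplicate.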

Row | EC50 (human TGR5 (h-TGR5)) [nM] | EC50 (h-TGR5) [nM] | Compound
1 | 100 to 1000 | < 100 | COc1cc(-n2c(C(C)(C)c3ccc(S(C)(=O)=O)cc3)cnc2SCc2c(F)cc(C(=O)O)cc2F)ccc1F [3,5-difluoro-4-{[(1-[4-fluoro-3-(methyloxy)phenyl]-5-{1-methyl-1-[4-(methylsulfonyl)phenyl]ethyl}-1H-imidazol-2-yl)thio]methyl}benzoic acid]
2 | 100 to 1000 | 1000 to 10000 | CC(C)(c1ccc(Cl)c(Cl)c1)c1cnc(SCc2ccc(F)cc2Cl)n1-c1cccnc1 [3-(2-{[(2-chloro-4-fluorophenyl)methyl]thio}-5-[1-(3,4-dichlorophenyl)-1-methylethyl]-1H-imidazol-1-yl)pyridine]
3 | 100 to 1000 | 100 to 1000 | COc1cc(C(C)(C)c2cnc(SCc3c(F)cccc3Cl)n2-c2cccnc2)ccc1Cl [3-(2-{[(2-chloro-6-fluorophenyl)methyl]thio}-5-{1-[4-chloro-3-(methyloxy)phenyl]-1-methylethyl}-1H-imidazol-1-yl)pyridine]
4 | < 100 | < 100 | COc1cc(C(C)(C)c2cnc(SCc3c(F)ccc(S(N)(=O)=O)c3F)n2-c2ccc(F)cc2)ccc1Cl [3-({[5-{1-[4-chloro-3-(methyloxy)phenyl]-1-methylethyl}-1-(4-fluorophenyl)-1H-imidazol-2-yl]thio}methyl)-2,4-difluorobenzenesulfonamide]
5 | < 100 | < 100 | COc1cc(C(C)(C)c2cnc(SCc3c(F)cc(-c4noc(=O)[nH]4)cc3F)n2-c2ccc(F)cc2)ccc1Cl [3-[4-({[5-{1-[4-chloro-3-(methyloxy)phenyl]-1-methylethyl}-1-(4-fluorophenyl)-1H-imidazol-2-yl]thio}methyl)-3,5-difluorophenyl]-1,2,4-oxadiazol-5(4H)-one]
6 | 1000 to 10000 | 1000 to 10000 | CC(C)(c1ccc(Cl)c(Cl)c1)c1cnc(SCC2CCCN(c3nnn[nH]3)C2)n1-c1ccc(F)cc1 (stereo not shown) [3-[({5-[1-(3,4-dichlorophenyl)-1-methylethyl]-1-(4-fluorophenyl)-1H-imidazol-2-yl}thio)methyl]-1-(1H-tetrazol-5-yl)piperidine]
7 | 100 to 1000 | 1000 to 10000 | CC(C)(c1ccc(Cl)c(Cl)c1)c1cnc(CCc2ccc(S(N)(=O)=O)cc2Cl)n1-c1ccc(F)cc1 [3-chloro-4-(2-{5-[1-(3,4-dichlorophenyl)-1-methylethyl]-1-(4-fluorophenyl)-1H-imidazol-2-yl}ethyl)benzenesulfonamide]
8 | < 100 | 100 to 1000 | COc1cc(C(C)(C)c2cnc(SCc3ccc(S(=O)(=O)NC(=O)NN4CCCC4)cc3Cl)n2-c2ccc(F)c(Cl)c2)ccc1Cl [3-chloro-4-({[1-(3-chloro-4-fluorophenyl)-5-{1-[4-chloro-3-(methyloxy)phenyl]-1-methylethyl}-1H-imidazol-2-yl]thio}methyl)-N-[(pyrrolidine-1-ylamino)carbonyl]benzenesulfonamide]
9 | 100 to 1000 | 100 to 1000 | CC(C)(c1ccc(Cl)c(OCCCN2CCOCC2)c1)c1cnc(SCc2c(F)cc(C(=O)O)cc2Cl)n1-c1ccc(F)cc1 [3-chloro-4-({[5-(1-{4-chloro-3-[(3-morpholin-4-ylpropyl)oxy]phenyl}-1-methylethyl)-1-(4-fluorophenyl)-1H-imidazol-2-yl]thio}methyl)-5-fluorobenzoic acid]
10 | 100 to 1000 | 100 to 1000 | CC(C)NC(=O)NS(=O)(=O)c1ccc(CSc2ncc(C(C)(C)c3ccc(F)c(C(F)F)c3)n2-c2ccc(F)cc2)c(Cl)c1 [3-chloro-4-({[5-{1-[3-(difluoromethyl)-4-fluorophenyl]-1-methylethyl}-1-(4-fluorophenyl)-1H-imidazol-2-yl]thio}methyl)-N-{[(1-methylethyl)amino]carbonyl} benzenesulfonamide]
11 | 100 to 1000 | 100 to 1000 | COc1ccc(C(C)(C)c2cnc(SCc3ccc(S(=O)(=O)NC(=O)NN4CCCC4)cc3Cl)n2-c2ccc(F)c(C)c2)cc1Cl [3-chloro-4-({[5-{1-[3-chloro-4-(methyloxy)phenyl]-1-methylethyl}-1-(4-fluoro-3-methylphenyl)-1H-imidazol-2-yl]thio}methyl)-N-[(pyrrolidin-1-ylamino)carbonyl]benzenesulfonamide]
12 | < 100 | < 100 | COc1ccc(C(C)(C)c2cnc(SCc3c(F)cc(C(=O)O)cc3Cl)n2-c2ccc(F)cc2)cc1Cl [3-chloro-4-({[5-{1-[3-chloro-4-(methyloxy)phenyl]-1-methylethyl}-1-(4-fluorophenyl)-1H-imidazol-2-yl]thio}methyl)-5-fluorobenzoic acid]
13 | 100 to 1000 | 100 to 1000 | COc1ccc(C(C)(C)c2cnc(SCc3ccc(S(=O)(=O)NC(=O)NN4CCCC4)cc3Cl)n2-c2ccc(F)cc2)cc1Cl [3-chloro-4-({[5-{1-[3-chloro-4-(methyloxy)phenyl]-1-methylethyl}-1-(4-fluorophenyl)-1H-imidazol-2-yl]thio}methyl)-N-[(pyrrolidin-1-ylamino)carbonyl]benzenesulfonamide]
14 | 100 to 1000 | 100 to 1000 | COc1ccc(C(C)(C)c2cnc(SCc3ccc(S(=O)(=O)NC(=O)NC(C)C)cc3Cl)n2-c2ccc(F)cc2)cc1Cl [3-chloro-4-({[5-{1-[3-chloro-4-(methyloxy)phenyl]-1-methylethyl}-1-(4-fluorophenyl)-1H-imidazol-2-yl]thio}methyl)-N-{[(1-methylethyl)amino]carbonyl}benzenesulfonamide]
15 | < 100 | < 100 | COc1ccc(C(C)(C)c2cnc(SCc3ccc(S(N)(=O)=O)cc3Cl)n2-c2ccc(F)cc2)cc1Cl [3-chloro-4-({[5-{1-[3-chloro-4-(methyloxy)phenyl]-1-methylethyl}-1-(4-fluorophenyl)-1H-imidazol-2-yl]thio}methyl)benzenesulfonamide]
16 | 100 to 1000 | 100 to 1000 | CC(C)(c1ccc(C(F)F)c(F)c1)c1cnc(SCc2ccc(S(=O)(=O)NC(=O)NN3CCCC3)cc2Cl)n1-c1ccc(F)cc1 [3-chloro-4-({[5-{1-[4-(difluoromethyl)-3-fluorophenyl]-1-methylethyl}-1-(4-fluorophenyl)-1H-imidazol-2-yl]thio}methyl)-N-[(pyrrolidin-1-ylamino)carbonyl]benzenesulfonamide]
17 | 100 to 1000 | 100 to 1000 | CC(C)NC(=O)NS(=O)(=O)c1ccc(CSc2ncc(C(C)(C)c3ccc(C(F)F)c(F)c3)n2-c2ccc(F)cc2)c(Cl)c1 [3-chloro-4-({[5-{1-[4-(difluoromethyl)-3-fluorophenyl]-1-methylethyl}-1-(4-fluorophenyl)-1H-imidazol-2-yl]thio}methyl)-N-{[(1-methylethyl)amino]carbonyl} benzenesulfonamide]
18 | 100 to 1000 | 100 to 1000 | COc1cc(C(C)(C)c2cnc(SCc3ccc(S(=O)(=O)NC(=O)NN4CCCC4)cc3Cl)n2-c2ccc(F)cc2F)ccc1Cl [3-chloro-4-({[5-{1-[4-chloro-3-(methyloxy)phenyl]-1-methylethyl}-1-(2,4-difluorophenyl)-1H-imidazol-2-yl]thio}methyl)-N-[(pyrrolidin-1-ylamino)carbonyl]benzenesulfonamide]
19 | 100 to 1000 | 100 to 1000 | COc1cc(C(C)(C)c2cnc(SCc3ccc(S(=O)(=O)NC(=O)NN4CCCC4)cc3Cl)n2-c2ccc(F)c(F)c2)ccc1Cl [3-chloro-4-({[5-{1-[4-chloro-3-(methyloxy)phenyl]-1-methylethyl}-1-(3,4-difluorophenyl)-1H-imidazol-2-yl]thio}methyl)-N-[(pyrrolidin-1-ylamino)carbonyl]benzenesulfonamide]
20 | < 100 | 100 to 1000 | COc1cc(C(C)(C)c2cnc(SCc3ccc(S(=O)(=O)NC(=O)NN4CCCC4)cc3Cl)n2-c2ccc(F)c(C)c2)ccc1Cl [3-chloro-4-({[5-{1-[4-chloro-3-(methyloxy)phenyl]-1-methylethyl}-1-(4-fluoro-3-methylphenyl)-1H-imidazol-2-yl]thio}methyl)-N-[(pyrrolidin-1-ylamino)carbonyl]benzenesulfonamide]
21 | 100 to 1000 | 100 to 1000 | COc1cc(C(C)(C)c2cnc(COc3c(F)cc(C(=O)O)cc3Cl)n2-c2ccc(F)cc2)ccc1Cl [3-chloro-4-({[5-{1-[4-chloro-3-(methyloxy)phenyl]-1-methylethyl}-1-(4-fluorophenyl)-1H-imidazol-2-yl]methyl}oxy)-5-fluorobenzoic acid]
22 | < 100 | < 100 | COc1cc(C(C)(C)c2cnc(SCc3c(F)cc(C(=O)Nc4nnn[nH]4)cc3Cl)n2-c2ccc(F)cc2)ccc1Cl [3-chloro-4-({[5-{1-[4-chloro-3-(methyloxy)phenyl]-1-methylethyl}-1-(4-fluorophenyl)-1H-imidazol-2-yl]thio}methyl)-5-fluoro-N-1H-tetrazol-5-ylbenzamide]
23 | < 100 | < 100 | COCCOCCOCCOCCOCCOCCOCCOCCOCCOCCOCCOCCOCCOCCNS(=O)(=O)c1cc(F)c(CSc2ncc(C(C)(C)c3ccc(Cl)c(OC)c3)n2-c2ccc(F)cc2)c(Cl)c1 [3-chloro-4-({[5-{1-[4-chloro-3-(methyloxy)phenyl]-1-methylethyl}-1-(4-fluorophenyl)-1H-imidazol-2-yl]thio}methyl)-5-fluoro-N-3,6,9,12,15,18,21,24,27,30,33,36, 39,42-tetradecaoxatritetracont-1-ylbenzenesulfonamide]
